According to patent US20070015771A1, “Lonidamine analogs” (Threshold pharmaceuticals, Inc., priority 2004, published 2007):
Read-outs that look alike come from different tables or passages of the source.

Key:
[1] = 5 day systemic administration in male SH rats, pharmacokinetic blood samples; format: in vivo, rat; conditions: oral daily for 5 days at 50 mg/ml, blood 2 hours after administration; for concentration at 2 h: rat, in vivo, read-out: PK
Description: (§1) The effect of test compounds (lonidamine and lonidamine analogs) on the SH rat prostate was determined as follows. The test compound was orally administered daily for 5 days to male, SH rat, (n=6, 14 weeks old, Charles River Labs) at 50 mg/ml concentrations (as a 0.5% carboxymethylcellulose formulation). The control rats received an equal amount of the vehicle ([…]). Blood samples were collected 2 hours after administration on day 6, for pharmokinetic analysis of the compounds. On day 6 the rats were sacrificed and the entire prostate and the individual lobes (e.g., the ventral, dorso-lateral, and anterior lobes) were removed and weighed to measure absolute weights. Relative weights of prostate and individual lobes were calculated by dividing the absolute weight by the total body weight of the […]. Relative weights of the entire prostate, the dorsal prostate, and the ventral prostate were calculated by dividing the absolute weight by the total weight of the mouse. The histomorphology of the prostate was also analyzed and compared to that of the control or untreated prostate.

H460 cells = assay: Antiproliferation assay (Alamar Blue), H460 cells; format: cell-based
Description: (§2) To determine the effect of lonidamine and analogs thereof on cell proliferation, the antiproliferative activity of these compounds was tested in a multi-well Alamar Blue based assay (at 2 h and 3 days). Cell growth in the presence and absence of the test compound (compounds 1-22) was compared, as measured by a fluorescence plate reader at excitation 550 nm and emission 590 nm (see Biosource International Inc., Tech Application Notes, Use of Alamar Blue in the measurement of Cell Viability and Toxicity, Determining IC50). H460 cells (ATCC HTB-177 ([…]), 4,000 cells/well/200 μl) and LNCap cells (ATCC CRL-1740, 6,000 cells/well/200 μl) were seeded in a 96 well plate in RPMI medium (Invitrogen Corporation, Carlsbad, Calif.). After 24 hours, these plates were divided into 3 groups—Control group, 2 h treatment group and 3 day treatment group. In the 2 h treatment group, after 2 h the cells were rinsed to remove the test compound and incubated for 3 days, followed by staining with AlamarBlue. The cells in the 3 day treatment group were incubated for 3 days, followed by staining with AlamarBlue. In the Control group, AlamarBlue was added to the plate at (i) day 0 and (ii) day 3 and measured to establish the control reading.

testes = assay: 5 day systemic administration in male SH rats, testis; format: in vivo, rat; set-up: inhibition in vivo: dose or concentration left out as unconfirmed; conditions: for Testis shrinkage: male SH rats, oral daily for 5 days at 50 mg/ml, day 6; for inhibition in vivo: Rattus norvegicus, po, 144 h, read-out: Testis shrinkage
LNCaP cells = assay: Antiproliferation assay (Alamar Blue), LNCaP cells; format: cell-based, human; conditions: 3 day treatment, read-out: GI50 LNCaP cell 3days
Description: as §2

SH rat prostate = assay: 5 day systemic administration in male SH rats, prostate; format: in vivo; set-up: inhibition in vivo: dose or concentration left out as unconfirmed; conditions: for Prostate shrinkage: male SH rats, oral daily for 5 days at 50 mg/ml, day 6; for inhibition in vivo: Rattus norvegicus, po, 144 h, read-out: Prostate shrinkage
Description: as §1

PWR-1E cells [2] = assay: Antiproliferation assay 3 days, PWR-1E cells (Example 49); format: cell-based; conditions: read-out: PWR1e cell line IC50
Description: (§3) To determine the effect of lonidamine analogs thereof on cell proliferation, the antiproliferative activity of these compounds was tested in a multi-well Alamar Blue based assay (at 3 days). Cell growth in the presence and absence of the test compound was compared, as measured by a fluoresence plate reader at excitation 550 nm and emission 590 nm (see Biosource International Inc., Tech Application Notes, Use of Alamar Blue in the measurement of Cell Viability and Toxity, Determining IC50). The following cell lines were tested: PWR-1E cells ((ATCC CRL-11611), 3500 cells/well/200 μl in Keratinocyte SFM medium (Gibco Products, Invitrogen Corporation, Carlsbad, Calif.)); DU-145 cells ((ATCC HTB-81), 4000 cells/well/200 μl in MEM Eagles medium (ATCC, Manassas, Va.)); PC3 cells ((ATCC CRL-1435), 4000 cells/200 μl in Modified HAM's F12 medium (ATCC, Manassas, Va.)); PNt2 cells ((Sigma-Aldrich, 95012613-1 VL), 4000 cells/well/200 μl in RPMI medium (Gibco Products, Invitrogen Corporation, Carlsbad, Calif.), BPH-1 ((DSMZ ACC-143), 4000 cells/well/200 μl in RPMI medium (Gibco Products, Invitrogen Corporation, Carlsbad, Calif), and NCI-H460 cells ((ATCC HTB-177), 4000 cells/well/200 μl in RPMI medium (Gibco Products, Invitrogen Corporation, Carlsbad, Calif.)). The cells were seeded in a 96 well plate in a medium specified above. After 24 hours, these plates were divided into 2 groups—Control group and 3 day treatment group. A test compound was added to each plate in the treatment groups at concentrations of […] as tabulated in Table 1 (in 2 μl 1 of 100% DMSO, final DMSO concentration 1% in all wells). For NCI-H460 cells, test compounds were added to each plate in the treatment groups at concentrations of 600, 300, 100, 30, 10, 3, and 1 μM (in 2 μl of 100% DMSO, final DMSO concentration 1% in all wells). The cells in the 3 day treatment group were incubated for 3 days, followed by staining with AlamarBlue. In the Control group, AlamarBlue was added to the plate at (i) day 0 and (ii) day 3 and measured to establish the control reading. […] For the NCI-H460 cells, the capacity of the cells to proliferate was measured 5 hours after addition of AlamarBlue using the same fluorescence plate reader as stated above.

PWR-1E cells [3] = assay: Antiproliferation assay, PWR-1E cells (Example 48); format: cell-based; conditions: read-out: IC50 PWR-1E cell
Description: as §2
The effect of lonidamine and analogs thereof on cell proliferation in PWR-1E cells (ATCC CRL-11611) was determined in an antiproliferative assay using PWR-1E cells (5000 cells/well) in Keratinocyte SFM medium (Gibco Products, Invitrogen Corporation, Carlsbad, Calif.) according to the procedure detailed in Example 47 above.

mouse prostate = assay: Mouse study, 10 day effect of Compound 3 on prostate; format: in vivo; conditions: mice
Description: (§4) The 10 day effect of Compound 3 on the mouse prostate and its 5 day effect on mouse testis were determined as in Example 51 by using 10 mice per experiment group and the results are illustrated graphically in FIGS. 14-18.

DU-145 cells = assay: Antiproliferation assay 3 days, DU-145 cells; format: cell-based; conditions: 3 day treatment; read-out: Du-145 cell line IC50
Description: as §3

BPH-1 = assay: Antiproliferation assay 3 days, BPH-1 cells; format: cell-based; conditions: 3 day treatment; read-out: BPH-1 cell line IC50
Description: as §3

mouse testis = assay: Mouse study, 5 day effect of Compound 3 on testis; format: in vivo; conditions: mice
Description: as §4

PNt2 cells = assay: Antiproliferation assay 3 days, PNt2 cells; format: cell-based; conditions: 3 day treatment; read-out: PNT2c cell line IC50
Description: as §3

PC3 cells = assay: Antiproliferation assay 3 days, PC3 cells; format: cell-based, human; conditions: 3 day treatment; read-out: PC-3 cell line IC50
Description: as §3

NCI-H460 cells = assay: Antiproliferation assay 3 days, NCI-H460 cells; format: cell-based; conditions: Homo sapiens, NCI-H460, 72 h, read-out: NCI-H460 cell line IC50
Description: as §3

[4] = 3 day treatment, read-out: GI50 H460 cell 3 days
[5] = read-out: GI50 H460 cell 2 hr, 2 h treatment then 3 days incubation

NC(=O)c1nn(Cc2ccc(Cl)cc2Cl)c2ccccc12 [Compound 5]
PK [1]: 12 µg/mL | GI50 (H460 cells; [4]): 20 µM | GI50 (H460 cells; [5]): 40 µM | Testis shrinkage (testes): −3.5% | GI50 (LNCaP cells): 20 µM | Prostate shrinkage (SH rat prostate): −8.1% | IC50 (PWR-1E cells [2]; 3 day treatment): 5.5 µM | IC50 (PWR-1E cells [3]): 4 µM

O=C(O)c1nn(Cc2c(Cl)cccc2Cl)c2ccccc12 [Compound 3]
PK [1]: 243 µg/mL | GI50 (H460 cells; [4]): 250 µM | GI50 (H460 cells; [5]): 398 µM | Testis shrinkage (testes): 0.4% | GI50 (LNCaP cells): 180 µM | absolute anterior prostate weight (FIG. 16) (mouse prostate): reduction | absolute dorsal prostate weight (FIG. 15) (mouse prostate): reduction | absolute ventral prostate weight (FIG. 14) (mouse prostate): reduction | Prostate shrinkage (SH rat prostate): −2.9% | IC50 (DU-145 cells): 224 µM | IC50 (PWR-1E cells [2]; 3 day treatment): 69 µM | IC50 (PWR-1E cells [3]): 25 µM | IC50 (BPH-1): 215 µM | absolute left testis weight (FIG. 18) (mouse testis): reduction | absolute right testis weight (FIG. 17) (mouse testis): reduction | IC50 (PNt2 cells): 257 µM | IC50 (PC3 cells): 191 µM

O=C(O)c1nn(Cc2cc(Cl)ccc2Cl)c2ccccc12 [Compound 83]
IC50 (NCI-H460 cells): 126 µM | inhibition in vivo (testes): 48% | inhibition in vivo (SH rat prostate): 31.7% | IC50 (PWR-1E cells [2]; Homo sapiens, PWR-1E, 72 h): 38 µM

N#Cc1ccc(Cn2nc(C(=O)O)c3ccccc32)c(Cl)c1 [Compound 97]
concentration at 2 h [1]: 0 µg/mL | IC50 (NCI-H460 cells): > 300 µM | inhibition in vivo (testes): 0.9% | inhibition in vivo (SH rat prostate): 5.5% | IC50 (PWR-1E cells [2]; Homo sapiens, PWR-1E, 72 h): 135 µM

O=C(O)c1cn(Cc2ccc(Cl)cc2Cl)c2ccccc12 [Compound 78]
IC50 (NCI-H460 cells): 89 µM | inhibition in vivo (testes): 5.7% | inhibition in vivo (SH rat prostate): 10.1% | IC50 (PWR-1E cells [2]; Homo sapiens, PWR-1E, 72 h): 22 µM

CN(O)C(=O)c1nn(Cc2ccc(Cl)cc2Cl)c2ccccc12 [Compound 56]
IC50 (DU-145 cells): 3.25 µM | IC50 (PWR-1E cells [2]; 3 day treatment): 2.6 µM | IC50 (BPH-1): 1.65 µM | IC50 (PNt2 cells): 1.25 µM | IC50 (PC3 cells): 4 µM

O=C(Nc1cccnc1)c1nn(Cc2ccc(Cl)cc2Cl)c2ccccc12 [Compound 51]
PK [1]: 0.45 µg/mL | Testis shrinkage (testes): 2.2% | Prostate shrinkage (SH rat prostate): 8.7%

OCc1nn(Cc2ccc(Cl)cc2Cl)c2ccccc12 [Compound 58]
concentration at 2 h [1]: 0 µg/mL | inhibition in vivo (testes): 26.5% | inhibition in vivo (SH rat prostate): 12.9%

O=C(NO)c1nn(Cc2ccccc2)c2ccccc12 [Compound 2]
GI50 (H460 cells; [4]): 31.6 µM | GI50 (H460 cells; [5]): 400 µM | IC50 (PWR-1E cells [2]; 3 day treatment): 18 µM | IC50 (PWR-1E cells [3]): 18 µM

CC(c1ccc(Cl)cc1Cl)n1nc(C(=O)O)c2ccccc21 (stereo not shown) [Compound 67]
IC50 (NCI-H460 cells): 148 µM | inhibition in vivo (testes): 34.9% | inhibition in vivo (SH rat prostate): 18.2% | IC50 (PWR-1E cells [2]; Homo sapiens, PWR-1E, 72 h): 21 µM

O=C(O)c1nn(Cc2ccc(Cl)cc2)c2ccc(Cl)cc12 [Compound 64]
concentration at 2 h [1]: 614 µg/mL | IC50 (NCI-H460 cells): 159 µM | inhibition in vivo (testes): -1.3% | inhibition in vivo (SH rat prostate): -0.4% | IC50 (PWR-1E cells [2]; Homo sapiens, PWR-1E, 72 h): > 30 µM

CONC(=O)c1nn(Cc2ccc(Cl)cc2Cl)c2ccccc12 [Compound 53]
PK [1]: 1 µg/mL | Testis shrinkage (testes): 9.2% | Prostate shrinkage (SH rat prostate): 6.9%

O=C(NO)c1nn(Cc2ccc(Cl)cc2Cl)c2ccc(Cl)cc12 [Compound 54]
PK [1]: 120 µg/mL | Testis shrinkage (testes): 0.3% | Prostate shrinkage (SH rat prostate): 6.8% | IC50 (PWR-1E cells [2]; 3 day treatment): 1.3 µM

O=C(O)c1nn(Cc2ccc(Cl)cc2Cl)c2ccccc12 [Compound 12]
PK [1]: 153 µg/mL | GI50 (H460 cells; [4]): > 400 µM | GI50 (H460 cells; [5]): 251 µM | Testis shrinkage (testes): 42% | GI50 (LNCaP cells): 125 µM | Prostate shrinkage (SH rat prostate): 17% | IC50 (DU-145 cells): 214 µM | IC50 (PWR-1E cells [2]; 3 day treatment): 31 µM | IC50 (PWR-1E cells [3]): 20 µM | IC50 (BPH-1): 230 µM | IC50 (PNt2 cells): 198 µM | IC50 (PC3 cells): 195 µM

CS(=O)(=O)NC(=O)c1nn(Cc2ccc(Cl)cc2Cl)c2ccccc12 [Compound 4]
GI50 (H460 cells; [4]): 158 µM | GI50 (H460 cells; [5]): 281 µM | GI50 (LNCaP cells): 178 µM | IC50 (PWR-1E cells [3]): 18 µM
